What was measured:
[1] = biological target: T1, Lxrα (Homo sapiens, UniProt Q13133); experiment: Lxrα luciferase reporter assay in SN4741 neural cells; assay type: cell-based, mouse; details: 10 μM, 24 h
T1 construct: expressed in transfected cells; host or cells: SN4741 mouse neuronal cell line
T1 sequence (Q13133 1-447): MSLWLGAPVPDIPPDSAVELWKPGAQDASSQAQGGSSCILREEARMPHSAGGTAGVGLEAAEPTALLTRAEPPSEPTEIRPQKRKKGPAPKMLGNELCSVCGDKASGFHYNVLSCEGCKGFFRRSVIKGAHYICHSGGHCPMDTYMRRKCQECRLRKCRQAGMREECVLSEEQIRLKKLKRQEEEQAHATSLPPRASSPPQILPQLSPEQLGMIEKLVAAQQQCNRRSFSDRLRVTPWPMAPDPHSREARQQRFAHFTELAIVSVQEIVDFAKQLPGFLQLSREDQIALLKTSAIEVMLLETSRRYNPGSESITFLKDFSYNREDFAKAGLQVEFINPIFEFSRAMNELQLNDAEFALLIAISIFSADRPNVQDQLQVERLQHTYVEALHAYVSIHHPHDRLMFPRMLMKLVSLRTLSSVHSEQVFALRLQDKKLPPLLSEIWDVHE
From the text: (§1) Luciferase Reporter Assay.

[2] = biological target: T2, Lxrβ (Homo sapiens, UniProt P55055); experiment: Lxrβ luciferase reporter assay in SN4741 neural cells; assay type: cell-based, mouse; details: for Lxr activational capacity in combination with 22R-HC: 10 μM acid + 10 μM 22R-HC; for Lxrβ activation, luciferase activity (fold activation): SN4741 cells, 10 μM, 24 h
T2 construct: expressed in transfected cells; host or cells: SN4741 mouse neuronal cell line
T2 sequence (P55055 1-460): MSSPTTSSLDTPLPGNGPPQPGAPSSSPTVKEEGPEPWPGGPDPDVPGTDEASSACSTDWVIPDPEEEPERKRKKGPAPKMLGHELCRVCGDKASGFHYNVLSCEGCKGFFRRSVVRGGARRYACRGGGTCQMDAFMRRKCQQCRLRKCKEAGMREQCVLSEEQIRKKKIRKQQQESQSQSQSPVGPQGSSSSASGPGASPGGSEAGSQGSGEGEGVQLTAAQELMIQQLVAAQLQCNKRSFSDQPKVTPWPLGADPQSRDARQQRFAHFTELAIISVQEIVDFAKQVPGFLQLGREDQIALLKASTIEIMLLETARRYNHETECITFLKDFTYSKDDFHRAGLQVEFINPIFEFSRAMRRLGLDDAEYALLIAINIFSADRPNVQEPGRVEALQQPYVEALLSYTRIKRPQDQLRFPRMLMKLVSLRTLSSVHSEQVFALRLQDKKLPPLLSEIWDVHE
From the text: as §1

[3] = tested on: Abca1, Abcg1 and Srebf1 transcript levels; experiment: Quantitative PCR of Lxr target genes in SN4741 cells; assay type: cell-based, mouse; details: 3 h
Procedure: Quantitative PCR, Total RNA was extracted from SN4741. cells and zebrafish treated with the compounds of interest using the RNeasy Mini Kit (Qiagen), 1 μg was treated with RQ1 RNase-free DNase (Promega) and reverse transcribed using SuperScript II Reverse Transcriptase (invitrogen) and random primers (invitrogen) (RT+reaction). Parallel reactions without reverse transcriptase enzyme were done as a control (RT−reaction), and Sybergreen real-time quantitative PCR assays were performed. Expression levels were obtained by normalization with the Value of the housekeeping gene encoding actin obtained for every sample in parallel assays.

[4] = tested on: active caspase 3+ cells; experiment: Active caspase 3+ cells in mouse E11.5 brain primary cultures; assay type: cell-based; details: for Concentration giving significant difference from vehicle in active caspase 3+ cells: p<0.05; for Number of active caspase-3+ cells: wt cultures, 3β,7α-diHCA, 3βH,7O-CA, 25-HC at 10 μM, toxic acids at low concentrations
Procedure: (§2) Primary Brain Cultures. Brains from E11.5 mice were manually dissected, plated on poly-D-lysine (150,000 cells/cm^2) and grown in serum-free N2 media consisting of 1:1 mixture of F12 and DMEM with 10 ng/mL insulin, 100 μg/mL apo-transferrin, 100 μM putrescine, 20 nM progesterone, 30 nM selenium, 6 mg/mL glucose, and 1 mg/mL BSA. Cells were treated for 3 days in vitro (DIV) with the compounds of interest, fixed with 4% PFA and processed for staining using appropriate antibodies.
(§3) Antibodies and Detection Procedures. Cells were fixed in 4% PFA, washed in PBS and blocked in 5% normal goat serum/PBS for 1 h at room temperature. Primary antibodies were diluted in PBS (pH 7.4), 0.3% Triton X-100, 1% BSA and incubations were carried out overnight at +4° C. or at room temperature for 2 h. The antibodies used were anti-:BrdU (1:400; Abeam), Islet-1 (1:100: Developmental Studies Hybridoma Bank), cleaved caspase-3 (Aspt 75) (1:100; Cell Signaling Technology), tyrosine hydroxylase (TH; 1:1000; Pel-Freeze) GABA (1:1,000; Sigma), Bm3a (1:250; Millipore), Nkx6.1 (1:200; Novus Biologicals), choline acetyltransferase (ChAT; 1:500; Millipore) and appropriate secondary antibodies (Jackson ImmunoResearch or Alexa). Cells positive for the corresponding marker were counted directly at the microscope at a magnification of 20×. Cells were counted in every well, in eight consecutive fields (going from one side of the well to the other, passing through the center), in three different wells per experiment and in three different experiments per condition. Random pictures of the wells were taken for every condition to document the result, and representative pictures were subsequently selected to represent the quantitative data. Photos were acquired with a Zeiss Axioplan microscope and a Hamamatsu camera C4742-95 using the Openlab software.

[5] = tested on: TH+ dopamine neurons, GABAergic or red nucleus neurons; Nkx6.1+ cells; experiment: Other cell types in mouse E11.5 brain primary cultures; assay type: cell-based
Procedure: as §2, §3

SMILES | Lxrα activation, luciferase activity (fold activation) [1] | Lxr activational capacity in combination with 22R-HC [2] | Lxrβ activation, luciferase activity (fold activation) [2] | Abca1, Abcg1 and Srebf1 transcript levels [3] | Surviving cells in cultures ([4]; 10 μM) | Concentration at which toxicity is initiated ([4]; mouse, primary brain cultures from E11.5 mouse embryos, 3 days) [nM] | Concentration giving significant difference from vehicle in active caspase 3+ cells [4] [µM] | Number of active caspase-3+ cells [4] | Total number of Nkx6.1+ cells [5] | Reduction of neuronal cell death (activated caspase 3) induced by 2 μM 3β,7β-diHCA or 3β-HCA ([4]; 10 μM) | Effect on active caspase-3+ cells with GGPP ([4]; 10 μM GGPP, toxic acids at 2 μM) | Number of other midbrain neurons (TH+ dopamine, GABAergic, red nucleus) ([5]; data not shown)
CC(CCC[C@@H](C)[C@H]1CC[C@H]2[C@@H]3CC=C4C[C@@H](O)CC[C@]4(C)[C@H]3CC[C@]12C)C(=O)O (stereo partly drawn) [3β-HCA, 3β-hydroxycholest-5-en-26-oic acid] | activates Lxr | No additive effect was observed | activates Lxr | induced transcription, but to a lesser extent | no surviving cells were detected | 1000 | ≥ 2 | increased the number of active caspase-3+ cells | neither 3β,7α-diHCA nor 3β-HCA altered the total number of Nkx6.1+ cells |  |  | 
CC(CCC[C@@H](C)[C@H]1CC[C@H]2[C@@H]3[C@H](O)C=C4C[C@@H](O)CC[C@]4(C)[C@H]3CC[C@]12C)C(=O)O (stereo partly drawn) [3β,7α-diHCA, 3β,7α-dihydroxycholest-5-en-26-oic acid] | have the ability to activate both Lxrs | No additive effect was observed | have the ability to activate both Lxrs | increased transcripts levels to a similar degree as 22R-HC |  |  | ≥ 10 | decreased the number of active caspase-3+ cells | neither 3β,7α-diHCA nor 3β-HCA altered the total number of Nkx6.1+ cells | reduced the neuronal cell death | completely blocked by co-incubation with the Lxr inhibitor GGPP | did not affect the number of other midbrain neurons
